The record followed here is patent publication US20110081296A1, “SYSTEMS AND METHODS FOR IDENTIFICATION OF CILIOPATHY THERAPEUTICS” (RUTGERS, THE STATE UNIVERSITY OF NEW JERSEY, priority 2009, published 2011).

Common to all, as to type: cell-based, Caenorhabditis elegans
In one assay the test system is my15 spermatids. Description: in vitro sperm activation of isolated male spermatids, cil-1(my15) mutant. To be noted: 100 nM. On the procedure: (§1) To isolate spermatids, virgin L4 males were isolated for 2-3 days in 20 degrees and cut with a 25g needle on a glass slide in Sperm Media (SM) pH 7.9 with 10 mM Dextrose. For in vitro activation, 20 ug/ml of Pronase or 100 nM monensin (for in vitro sperm crawling experiments) was added to SM as described in [21]. For wortmannin treatment, a 100× wortmannin stock solution in DMSO was added to reach the final concentration of 100 nM into SM. During sperm activation, a round spermatid develops into a motile spermatozoon with a pseudopod (FIG. 16A). This process can be mimicked in vitro by chemical activators such as the ionophore monensin or Pronase. Within 15 min of Pronase application, the majority of WT male spermatids (63.4%, n=347) extend pseudopods (FIGS. 16B and 16B′), and the average length of spermatozoa is 8.13±1.11 μm (±standard deviation [SD], n=95) (FIG. 16B′). […] The diameter of my15 spermatids is also slightly smaller (6.22±0.54 μm, n=136) than WT (6.73±0.65 μm, n=110, p=8.08E-07). In vivo sperm activation defects were observed also in my15 hermaphrodites. […] Thus, cil-1 positively regulates sperm activation in vitro and in vivo. […] To this end, 1 nM, 10 nM, and 100 nM wortmannin, a pharmacological inhibitor of PI 3-kinases that produce PI(3,4,5)P3 from PI(4,5)P2 [27], were applied to WT and my15 spermatids.

The next assay relates to WT spermatids. The experiment in a line: in vitro sperm activation of isolated male spermatids, wild type. The conditions noted are these: of 1, 10, 100 nM tested. On the procedure:
as §1

The next assay relates to my15 sperm. The experiment in a line: in vitro sperm crawling on glass slides after chemical activation, cil-1(my15) mutant. To be noted: isolated my15 sperm. The procedure: (§2) Epifluorescence and Nomarski analyses were performed on a Zeiss Axioplan2 imaging system equipped with 10×, 63× (NA 1.4), 100× (NA 1.4) objectives and a Photometrics Cascade 512B CCD camera using Metamorph software. 3D deconvolution of Z-stacks of epifluorescent image were performed by AutoQuantX program (MediaCybernetics). Confocal images were collected using a 510 LSM META ZEISS. Optical sections were collected between 0.4-1.0 μm and projected as Z-series that were stored as TIFF files and manipulated using Adobe PhotoShopTM. Worms were anesthetized with 1 mM levamisole, mounted on agar pads and maintained at room temperature. For time-lapse microscopy of sperm motility, Nomarski images were taken every 15 seconds for up to 15 minutes. Neuronal images shown in figures are projected epifluorescent Z-stacks af[…] deconvolution except for FIGS. 2C and 2G, which are projected Z-stacks of confocal sections. For electron microscopy, sperm were prepared as known in the art, except that the samples were embedded in LX112 (Ladd Research Industries Inc., Burlington, Va.). To isolate spermatids, virgin L4 males were isolated for 2-3 days in 20 degrees and cut with a 25g needle on a glass slide in Sperm Media (SM) pH 7.9 with 10 mM Dextrose. For in vitro activation, 20 ug/ml of Pronase or 100 nM monensin (for in vitro sperm crawling experiments) was added to SM as described in [21]. […]

A further assay has as its system WT sperm. Description: in vitro sperm crawling on glass slides after chemical activation, wild type. To be noted: n=7. On the procedure:
as §2

On to `COC[C@H]1OC(=O)c2coc3c2[C@@]1(C)C1=C(C3=O)[C@@H]2CCC(=O)[C@@]2(C)C[C@H]1OC(C)=O` [wortmannin], for which, in the assay on my15 spermatids, the “activation of male-derived sperm” value is on record as “not activated”. Also, the “most effective concentration for in vitro activation” value with WT spermatids was found to be 100 nM.

Regarding `CC[C@@]1([C@@H]2O[C@@H]([C@H]3O[C@@](O)(CO)[C@H](C)C[C@@H]3C)C[C@@H]2C)CC[C@H]([C@]2(C)CC[C@]3(C[C@H](O)[C@@H](C)[C@@H]([C@@H](C)[C@@H](OC)[C@H](C)C(=O)O)O3)O2)O1` [monensin], the sperm motility entry in the assay on my15 sperm was “immotile”. This compound also displayed a sperm crawl rate in the assay on WT sperm of 0.33±0.04 μm/s.
